“And” between values parts separate entries of the source, which are not always exact repeats. Identical values can stand only once. Inconclusive results and toxic doses are left out. No stated cut-off is given here; in the data, active means T/C of 150% or more; inactive means T/C below 125%.
Tested on: L1210 leukemia ip in BDF1 mice, survival T/C
Assay: NCI In Vivo Anticancer Drug Screen. Data for tumor model L1210 Leukemia (intraperitoneal) in B6D2F1 (BDF1) mice
Details: endpoint: mean survival time, higher = longer survival
In short: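 Antitumor effect is assessed in tumor-bearing animals. Survival in the compound arm is compared with a vehicle-dosed control arm and expressed as their quotient.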

[1] = dose: 50.0 mg/kg/injection, schedule: Q01DX009 (ip), vehicle: saline
[2] = dose: 100.0 mg/kg/injection, schedule: Q04DX003 (ip), vehicle: saline
[3] = dose: 200.0 mg/kg/injection, schedule: Q04DX003 (ip), vehicle: saline
[4] = dose: 100.0 mg/kg/injection, schedule: Q01DX001 (ip), vehicle: saline
[5] = dose: 100.0 mg/kg/injection, schedule: Q04DX003 (ip), vehicle: saline with Tween-80
[6] = dose: 200.0 mg/kg/injection, schedule: Q04DX003 (ip), vehicle: saline with Tween-80
[7] = dose: 400.0 mg/kg/injection, schedule: Q04DX003 (ip), vehicle: saline with Tween-80
[8] = dose: 100.0 mg/kg/injection, schedule: Q01DX001 (ip), vehicle: carboxymethylcellulose (CMC)
[9] = dose: 200.0 mg/kg/injection, schedule: Q01DX001 (ip), vehicle: carboxymethylcellulose (CMC)
[10] = dose: 400.0 mg/kg/injection, schedule: Q01DX001 (ip), vehicle: carboxymethylcellulose (CMC)
[11] = dose: 100.0 mg/kg/injection, schedule: Q04DX002 (ip), vehicle: Klucel (hydroxypropylcellulose) (HPC)
[12] = dose: 200.0 mg/kg/injection, schedule: Q04DX002 (ip), vehicle: Klucel (hydroxypropylcellulose) (HPC)
[13] = dose: 100.0 mg/kg/injection, schedule: Q01DX009 (ip), vehicle: saline
[14] = dose: 200.0 mg/kg/injection, schedule: Q01DX001 (ip), vehicle: saline
[15] = dose: 100.0 mg/kg/injection, schedule: Q01DX009 (ip), vehicle: Klucel (hydroxypropylcellulose) (HPC)
[16] = dose: 100.0 mg/kg/injection, schedule: Q04DX003 (ip), vehicle: Klucel (hydroxypropylcellulose) (HPC)
[17] = dose: 200.0 mg/kg/injection, schedule: Q01DX009 (ip), vehicle: Klucel (hydroxypropylcellulose) (HPC)
[18] = dose: 200.0 mg/kg/injection, schedule: Q04DX003 (ip), vehicle: Klucel (hydroxypropylcellulose) (HPC)
[19] = dose: 400.0 mg/kg/injection, schedule: Q01DX009 (ip), vehicle: Klucel (hydroxypropylcellulose) (HPC)
[20] = dose: 400.0 mg/kg/injection, schedule: Q04DX003 (ip), vehicle: Klucel (hydroxypropylcellulose) (HPC)
[21] = dose: 400.0 mg/kg/injection, schedule: Q01DX001 (ip), vehicle: saline

Measured: T/C

Cc1cccc(Nc2cc(=O)[nH]c(=O)[nH]2)c1C
inactive: dose: 150.0 mg/kg/injection, schedule: Q01DX001 (ip), vehicle: saline with Tween-80 90 % of control | dose: 300.0 mg/kg/injection, schedule: Q01DX001 (ip), vehicle: saline with Tween-80 95 % of control

NCC(S)c1ccc(Cl)cc1 (stereo not drawn)
inactive: dose: 12.5 mg/kg/injection, schedule: Q01DX009 (ip), vehicle: saline 114 % of control | dose: 25.0 mg/kg/injection, schedule: Q01DX009 (ip), vehicle: saline 101 % of control | [1] 97 % of control

CC(=O)OC1C=C2CCC3C(CC(=O)C4(C)C3CC3OC34C(C)=O)C2(C)CC1 (stereo not drawn)
inactive: dose: 12.5 mg/kg/injection, schedule: Q04DX002 (ip), vehicle: saline 98 % of control | dose: 25.0 mg/kg/injection, schedule: Q04DX002 (ip), vehicle: saline 102 % of control | dose: 50.0 mg/kg/injection, schedule: Q04DX002 (ip), vehicle: saline 109 % of control

CC1(C)COCN1CN1COCC1(C)C
inactive: [2] 101 % of control | [3] 95 % of control

COc1ccc2nc3ccccc3c(NCCCN(C)C)c2c1
inactive: dose: 5.0 mg/kg/injection, schedule: Q01DX001 (ip), vehicle: saline 115 % of control | dose: 10.0 mg/kg/injection, schedule: Q01DX001 (ip), vehicle: saline 115 % of control | dose: 20.0 mg/kg/injection, schedule: Q01DX001 (ip), vehicle: saline 107 % of control | dose: 40.0 mg/kg/injection, schedule: Q01DX001 (ip), vehicle: saline 106 % of control

NC(=S)NN=C1CCCCCCCCC1
inactive: [4] 102 % of control

c1ccc(CNCc2cccnc2)cc1
inactive: dose: 75.0 mg/kg/injection, schedule: Q01DX009 (ip), vehicle: other 91 % of control | dose: 150.0 mg/kg/injection, schedule: Q01DX009 (ip), vehicle: other 98 % of control

O=[N+]([O-])c1ccc(N=C(Cl)c2ccccc2)cc1
inactive: [5] 98 % of control | [6] 98 % of control | [7] 104 % of control

O=C(O)C1CCC2SC(F)(F)C(F)(F)C2C1 (stereo not drawn)
inactive: [5] 98 % of control | [6] 96 % of control | [7] 98 % of control

O=C(O)C(CO)c1ccc(F)cc1 (stereo not drawn)
inactive: [8] 108 % of control | [9] 106 % of control | [10] 108 % of control

O=C1CN(/N=C/c2ccc(-c3ccc(Cl)c(Cl)c3)o2)C(=O)N1
inactive: dose: 50.0 mg/kg/injection, schedule: Q04DX002 (ip), vehicle: Klucel (hydroxypropylcellulose) (HPC) 100 % of control | [11] 110 % of control | [12] 95 % of control

CN(C)CCOC(=O)c1ccc(CCl)cc1
inactive: dose: 87.5 mg/kg/injection, schedule: Q01DX009 (ip), vehicle: saline 87 % of control | dose: 175.0 mg/kg/injection, schedule: Q01DX009 (ip), vehicle: saline 101 % of control

CC(=O)OC1CCC2(C)C(=CC=C3C2CCC2(C)C(C(C)=O)CCC32)C1 (stereo not drawn)
inactive: [11] 86 % of control | [12] 110 % of control | dose: 400.0 mg/kg/injection, schedule: Q04DX002 (ip), vehicle: Klucel (hydroxypropylcellulose) (HPC) 104 % of control

CC(=O)N(CCCc1ccccc1)C(C)(C)C
inactive: [1] 104 % of control | [4] 110 % of control | [13] 110 % of control | [14] 114 % of control

CC(C)(C)O[Si](C)(C)CCl
inactive: [8] 92 % of control | [9] 92 % of control | [10] 92 % of control

Cc1cccc(Cl)c1NC(N)=O
inactive: [15] 102 % of control | [16] 103 % of control | [17] 102 % of control | [18] 94 % of control | [19] 97 % of control | [20] 95 % of control

COc1cc2c(cc1OC)C1CC(=O)C(CC(C)C)CN1CC2 (stereo not drawn)
inactive: dose: 25.0 mg/kg/injection, schedule: Q01DX009 (ip), vehicle: Klucel (hydroxypropylcellulose) (HPC) 105 % of control | dose: 50.0 mg/kg/injection, schedule: Q01DX009 (ip), vehicle: Klucel (hydroxypropylcellulose) (HPC) 103 % of control | [15] 117 % of control | dose: 100.0 mg/kg/injection, schedule: Q01DX009 (ip), vehicle: saline with Tween-80 102 % of control | dose: 200.0 mg/kg/injection, schedule: Q01DX009 (ip), vehicle: saline with Tween-80 90 % of control | dose: 400.0 mg/kg/injection, schedule: Q01DX009 (ip), vehicle: saline with Tween-80 89 % of control

O=C(Nc1ccc2c3c(cccc13)CC2)c1cccc([N+](=O)[O-])c1
inactive: dose: 100.0 mg/kg/injection, schedule: Q01DX001 (ip), vehicle: saline with Tween-80 102 % of control | dose: 200.0 mg/kg/injection, schedule: Q01DX001 (ip), vehicle: saline with Tween-80 94 % of control | dose: 400.0 mg/kg/injection, schedule: Q01DX001 (ip), vehicle: saline with Tween-80 96 % of control

CC(=O)CC1(O)C(=O)Nc2ccccc21 (stereo not drawn)
inactive: [15] 101 % of control | [17] 95 % of control | [19] 98 % of control

CCOC(=O)C12CCC(=O)CC1(O)CCC1(C2)OCCCO1 (stereo not drawn)
inactive: dose: 100.0 mg/kg/injection, schedule: Q## X003 (ip), vehicle: saline 98 % of control | dose: 200.0 mg/kg/injection, schedule: Q## X003 (ip), vehicle: saline 104 % of control | dose: 400.0 mg/kg/injection, schedule: Q## X003 (ip), vehicle: saline 102 % of control

Oc1cccc2ccc3ccc4ccccc4c3c12
inactive: dose: 87.5 mg/kg/injection, schedule: Q04DX003 (ip), vehicle: Klucel (hydroxypropylcellulose) (HPC) 93 % of control | dose: 175.0 mg/kg/injection, schedule: Q04DX003 (ip), vehicle: Klucel (hydroxypropylcellulose) (HPC) 93 % of control | dose: 350.0 mg/kg/injection, schedule: Q04DX003 (ip), vehicle: Klucel (hydroxypropylcellulose) (HPC) 95 % of control

C=CCNC(=O)c1ccc(C(=O)NCC=C)cc1
inactive: [4] 102 % of control | [14] 102 % of control | [21] 98 % of control

CCOC(=O)C1=C(C)NC(=O)NC1c1ccc(N=Cc2cc(Br)ccc2O)cc1 (stereo not drawn)
inactive: [5] 97 % of control | [6] 97 % of control | [7] 89 % of control

Clc1ccc(/C(=[C](\[Hg]/[C](=C(\c2ccccc2)c2ccc(Cl)cc2)c2ccccc2)c2ccccc2)c2ccccc2)cc1
inactive: [15] 96 % of control | [16] 101 % of control | [17] 102 % of control | [18] 107 % of control | [19] 96 % of control | [20] 102 % of control

CCCCCCCCCCC(=O)NC1CCC(CC2CCCCC2)CC1 (stereo not drawn)
inactive: dose: 100.0 mg/kg/injection, schedule: Q04DX003 (ip), vehicle: other 101 % of control | dose: 200.0 mg/kg/injection, schedule: Q04DX003 (ip), vehicle: other 103 % of control | dose: 400.0 mg/kg/injection, schedule: Q04DX003 (ip), vehicle: other 101 % of control

O=C(Nc1ccc(F)c([N+](=O)[O-])c1)c1ccc2c(c1)C(=O)OC2=O
inactive: [4] 99 % of control | [13] 102 % of control and 92 % of control | dose: 100.0 mg/kg/injection, schedule: Q04DX002 (ip), vehicle: saline 104 % of control and 109 % of control | [2] 106 % of control | [14] 99 % of control | dose: 200.0 mg/kg/injection, schedule: Q01DX009 (ip), vehicle: saline 100 % of control and 92 % of control | dose: 200.0 mg/kg/injection, schedule: Q04DX002 (ip), vehicle: saline 96 % of control and 104 % of control | [3] 111 % of control | [21] 104 % of control | dose: 400.0 mg/kg/injection, schedule: Q01DX009 (ip), vehicle: saline 105 % of control and 92 % of control | dose: 400.0 mg/kg/injection, schedule: Q04DX002 (ip), vehicle: saline 96 % of control and 104 % of control | dose: 400.0 mg/kg/injection, schedule: Q04DX003 (ip), vehicle: saline 103 % of control

C[N+]1(C)CCC(OC(=O)C(O)(c2ccccc2)C2CCCC2)C1 (stereo not drawn)
inactive: [5] 100 % of control

Reference: PubChem BioAssay AID248 (DTP/NCI, 2004)
